Results from patent publication US20230085307A1, “PYRIDAZINONE COMPOUND AND HERBICIDE” (NISSAN CHEMICAL CORPORATION, priority 2019, published 2023).

Experiments:
[1] = system: southern crabgrass; assay: Test Example 4: herbicidal effect by soil treatment (Table 19, symbol F); type: in vivo, southern crabgrass (Digitaria ciliaris)
Method in brief: (§1)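 Step 1: sow seeds in sterilized diluvial soil, cover ~1.5 cm. Step 2: spray diluted emulsion onto soil surface at predetermined rate. Step 3: greenhouse, 25–30° C, three weeks. Step 4: grade effect on each plant by earlier criteria.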

[2] = system: oval-leafed pondweed; assay: Test Example 1: herbicidal activity, application before weed generation under submerged conditions (Table 16, symbol C); type: in vivo, oval-leafed pondweed (Monochoria vaginalis); conditions: 320 g/ha applied herbicide
Method in brief: (§2)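 Submerged Wagner pots (alluvial soil, 4 cm water) sown with weed seeds and planted with 2.5-leaf rice seedlings; emulsifiable concentrate diluted in water applied to water surface on sowing day. Held in greenhouse at 25-30 °C; injury scored 0-5 by herbicidal rate after three weeks.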

[3] = system: velvetleaf; assay: Test Example 5: herbicidal effect by foliage application, plastic box (Table 20, symbol M); type: in vivo, velvetleaf (Abutilon theophrasti); conditions: foliage application, three weeks after application
Method in brief: (§3)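 Foliar spray test: emulsion formulation diluted in water to a set application rate, sprayed onto 14-day-old plants raised in diluvial soil at 25° C to 30° C under glass. Both herbicidal effect and crop effect rated visually three weeks later.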

[4] = system: redroot pigweed; assay: Test Example 4: herbicidal effect by soil treatment (Table 19, symbol N); type: in vivo, redroot pigweed (Amaranthus retroflexus)
Method in brief: as §1

[5] = system: barnyard grass; assay: Test Example 5: herbicidal effect by foliage application, plastic box (Table 20, symbol H); type: in vivo, barnyard grass (Echinochloa crus-galli); conditions: foliage application, three weeks after application
Method in brief: as §3

[6] = system: green foxtail; assay: Test Example 4: herbicidal effect by soil treatment (Table 19, symbol G); type: in vivo, green foxtail (Setaria viridis)
Method in brief: as §1

[7] = system: green foxtail; assay: Test Example 5: herbicidal effect by foliage application, plastic box (Table 20, symbol G); type: in vivo, green foxtail (Setaria viridis); conditions: foliage application, three weeks after application
Method in brief: as §3

[8] = system: wild oat; assay: Test Example 4: herbicidal effect by soil treatment (Table 19, symbol I); type: in vivo, wild oat (Avena fatua)
Method in brief: as §1

[9] = system: rice flat sedge; assay: Test Example 3: herbicidal effect by foliage application, Wagner pot (Table 18, symbol E); type: in vivo, rice flat sedge (Cyperus iria); conditions: 320 g/ha
Method in brief: (§4)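 Plants were sown in alluvial soil held under 0.1–0.5 cm standing water and grown 14 days in a greenhouse at 25–30 °C. An emulsifiable formulation, water-diluted to the set dose, was then sprayed onto the foliage, and effects were scored three weeks later using previously defined criteria.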

[10] = system: Italian ryegrass; assay: Test Example 4: herbicidal effect by soil treatment (Table 19, symbol K); type: in vivo, Italian ryegrass (Lolium multiflorum)
Method in brief: as §1

[11] = system: blackgrass; assay: Test Example 4: herbicidal effect by soil treatment (Table 19, symbol J); type: in vivo, blackgrass (Alopecurus myosuroides); conditions: amount of applied herbicide 320 g/ha
Method in brief: as §1

[12] = system: chickweed; assay: Test Example 4: herbicidal effect by soil treatment (Table 19, symbol P); type: in vivo, common chickweed (Stellaria media)
Method in brief: as §1

[13] = system: redroot pigweed; assay: Test Example 5: herbicidal effect by foliage application, plastic box (Table 20, symbol N); type: in vivo, redroot pigweed (Amaranthus retroflexus); conditions: foliage application, three weeks after application
Method in brief: as §3

[14] = system: persian speedwell; assay: Test Example 5: herbicidal effect by foliage application, plastic box (Table 20, symbol R); type: in vivo, Persian speedwell (Veronica persica); conditions: foliage application, three weeks after application
Method in brief: as §3

[15] = system: southern crabgrass; assay: Test Example 5: herbicidal effect by foliage application, plastic box (Table 20, symbol F); type: in vivo, southern crabgrass (Digitaria ciliaris); conditions: foliage application, three weeks after application
Method in brief: as §3

[16] = system: velvetleaf; assay: Test Example 4: herbicidal effect by soil treatment (Table 19, symbol M); type: in vivo, velvetleaf (Abutilon theophrasti)
Method in brief: as §1

[17] = system: lambsquarters; assay: Test Example 5: herbicidal effect by foliage application, plastic box (Table 20, symbol O); type: in vivo, lambsquarters (Chenopodium album); conditions: foliage application, three weeks after application
Method in brief: as §3

[18] = system: lambsquarters; assay: Test Example 4: herbicidal effect by soil treatment (Table 19, symbol O); type: in vivo, lambsquarters (Chenopodium album)
Method in brief: as §1

[19] = system: blackgrass; assay: Test Example 5: herbicidal effect by foliage application, plastic box (Table 20, symbol J); type: in vivo, blackgrass (Alopecurus myosuroides); conditions: foliage application, three weeks after application
Method in brief: as §3

[20] = system: late watergrass; assay: Test Example 1: herbicidal activity, application before weed generation under submerged conditions (Table 16, symbol A); type: in vivo, late watergrass (Echinochloa oryzicola); conditions: 320 g/ha applied herbicide
Method in brief: as §2

[21] = system: Japanese bulrush; assay: Test Example 1: herbicidal activity, application before weed generation under submerged conditions (Table 16, symbol B); type: in vivo, Japanese bulrush (Schoenoplectus juncoides); conditions: 320 g/ha applied herbicide
Method in brief: as §2

[22] = system: windgrass; assay: Test Example 5: herbicidal effect by foliage application, plastic box (Table 20, symbol L); type: in vivo, windgrass (Apera spica-venti); conditions: foliage application, three weeks after application
Method in brief: as §3

[23] = system: Italian ryegrass; assay: Test Example 5: herbicidal effect by foliage application, plastic box (Table 20, symbol K); type: in vivo, Italian ryegrass (Lolium multiflorum); conditions: foliage application, three weeks after application
Method in brief: as §3

[24] = system: Chinese sprangletop; assay: Test Example 3: herbicidal effect by foliage application, Wagner pot (Table 18, symbol D); type: in vivo, chinese sprangletop (Leptochloa chinensis); conditions: 320 g/ha
Method in brief: as §4

[25] = system: chickweed; assay: Test Example 5: herbicidal effect by foliage application, plastic box (Table 20, symbol P); type: in vivo, common chickweed (Stellaria media); conditions: foliage application, three weeks after application
Method in brief: as §3

[26] = system: barnyard grass; assay: Test Example 3: herbicidal effect by foliage application, Wagner pot (Table 18, symbol H); type: in vivo, barnyard grass (Echinochloa crus-galli); conditions: 320 g/ha
Method in brief: as §4

[27] = system: persian speedwell; assay: Test Example 4: herbicidal effect by soil treatment (Table 19, symbol R); type: in vivo, Persian speedwell (Veronica persica)
Method in brief: as §1

[28] = system: barnyard grass; assay: Test Example 4: herbicidal effect by soil treatment (Table 19, symbol H); type: in vivo, barnyard grass (Echinochloa crus-galli)
Method in brief: as §1

[29] = system: wild oat; assay: Test Example 5: herbicidal effect by foliage application, plastic box (Table 20, symbol I); type: in vivo, wild oat (Avena fatua); conditions: foliage application, three weeks after application
Method in brief: as §3

[30] = system: windgrass; assay: Test Example 4: herbicidal effect by soil treatment (Table 19, symbol L); type: in vivo, windgrass (Apera spica-venti); conditions: AAH 320 g/ha
Method in brief: as §1

[31] = amount of applied herbicide 320 g/ha

CCOc1ccccc1-c1sc2ccccc2c1-c1c(O)c(C)nn(C)c1=O [1-011]
herbicidal effect rating, F: southern crabgrass [1, 31]: 3 (Herbicidal rate of 40% or more and less than 70%) | Herbicidal effect on C: oval-leafed pondweed (grade 0-5) [2]: 0 (Herbicidal rate of 5% or less (almost no effect)) | herbicidal effect grade, M: velvetleaf ([3]; 320 g/ha): 3 (Herbicidal rate of 40% or more and less than 70%) | herbicidal effect rating, N: redroot pigweed [4, 31]: 4 (Herbicidal rate of 70% or more and less than 90%) | herbicidal effect grade, H: barnyard grass ([5]; 320 g/ha): 5 (Herbicidal rate of 90% or more (almost completely withered)) | herbicidal effect rating, G: green foxtail [6, 31]: 5 (Herbicidal rate of 90% or more (almost completely withered)) | herbicidal effect grade, G: green foxtail ([7]; 320 g/ha): 5 (Herbicidal rate of 90% or more (almost completely withered)) | herbicidal effect rating, I: wild oat [8, 31]: 2 (Herbicidal rate of 20% or more and less than 40%) | herbicidal effect on E (rice flat sedge), rating 0-5 [9]: 5 (Herbicidal rate of 90% or more (almost completely withered)) | herbicidal effect rating, K: Italian ryegrass [10, 31]: 3 (Herbicidal rate of 40% or more and less than 70%) | herbicidal effect rating, J: blackgrass [11]: 4 (Herbicidal rate of 70% or more and less than 90%) | herbicidal effect rating, P: chickweed [12, 31]: 5 (Herbicidal rate of 90% or more (almost completely withered)) | herbicidal effect grade, N: redroot pigweed ([13]; 320 g/ha): 5 (Herbicidal rate of 90% or more (almost completely withered)) | herbicidal effect grade, R: persian speedwell ([14]; 320 g/ha): 5 (Herbicidal rate of 90% or more (almost completely withered)) | herbicidal effect grade, F: southern crabgrass ([15]; 320 g/ha): 5 (Herbicidal rate of 90% or more (almost completely withered)) | herbicidal effect rating, M: velvetleaf [16, 31]: 0 (Herbicidal rate of 5% or less (almost no effect)) | herbicidal effect grade, O: lambsquarters ([17]; 320 g/ha): 2 (Herbicidal rate of 20% or more and less than 40%) | herbicidal effect rating, O: lambsquarters [18, 31]: 4 (Herbicidal rate of 70% or more and less than 90%) | herbicidal effect grade, J: blackgrass ([19]; 320 g/ha): 5 (Herbicidal rate of 90% or more (almost completely withered)) | Herbicidal effect on A: late watergrass (grade 0-5) [20]: 5 (Herbicidal rate of 90% or more (almost completely withered)) | Herbicidal effect on B: Japanese bulrush (grade 0-5) [21]: 0 (Herbicidal rate of 5% or less (almost no effect)) | herbicidal effect grade, L: windgrass ([22]; 320 g/ha): 4 (Herbicidal rate of 70% or more and less than 90%) | herbicidal effect grade, K: Italian ryegrass ([23]; 320 g/ha): 4 (Herbicidal rate of 70% or more and less than 90%) | herbicidal effect on D (Chinese sprangletop), rating 0-5 [24]: 3 (Herbicidal rate of 40% or more and less than 70%) | herbicidal effect grade, P: chickweed ([25]; 320 g/ha): 5 (Herbicidal rate of 90% or more (almost completely withered)) | herbicidal effect on H (barnyard grass), rating 0-5 [26]: 5 (Herbicidal rate of 90% or more (almost completely withered)) | herbicidal effect rating, R: persian speedwell [27, 31]: 5 (Herbicidal rate of 90% or more (almost completely withered)) | herbicidal effect rating, H: barnyard grass [28, 31]: 5 (Herbicidal rate of 90% or more (almost completely withered)) | herbicidal effect grade, I: wild oat ([29]; 320 g/ha): 4 (Herbicidal rate of 70% or more and less than 90%)

CCCC(=O)Oc1c(C)nn(C)c(=O)c1-c1c(-c2ccccc2OCOC)sc2ccccc12 [1-115]
F: southern crabgrass, herbicidal effect rating ([1]; AAH 320 g/ha): 0 (Herbicidal rate of 5% or less (almost no effect)) | Herbicidal effect on C: oval-leafed pondweed (grade 0-5) [2]: 2 (Herbicidal rate of 20% or more and less than 40%) | L: windgrass, herbicidal effect rating [30]: 0 (Herbicidal rate of 5% or less (almost no effect)) | M: velvetleaf, herbicidal effect ([3]; AAH 320 g/ha): 3 (Herbicidal rate of 40% or more and less than 70%) | N: redroot pigweed, herbicidal effect rating ([4]; AAH 320 g/ha): 3 (Herbicidal rate of 40% or more and less than 70%) | H: barnyard grass, herbicidal effect ([5]; AAH 320 g/ha): 2 (Herbicidal rate of 20% or more and less than 40%) | G: green foxtail, herbicidal effect rating ([6]; AAH 320 g/ha): 0 (Herbicidal rate of 5% or less (almost no effect)) | G: green foxtail, herbicidal effect ([7]; AAH 320 g/ha): 4 (Herbicidal rate of 70% or more and less than 90%) | I: wild oat, herbicidal effect rating ([8]; AAH 320 g/ha): 0 (Herbicidal rate of 5% or less (almost no effect)) | herbicidal effect on E (rice flat sedge), rating 0-5 [9]: 2 (Herbicidal rate of 20% or more and less than 40%) | K: Italian ryegrass, herbicidal effect rating ([10]; AAH 320 g/ha): 0 (Herbicidal rate of 5% or less (almost no effect)) | P: chickweed, herbicidal effect rating ([12]; AAH 320 g/ha): 0 (Herbicidal rate of 5% or less (almost no effect)) | N: redroot pigweed, herbicidal effect ([13]; AAH 320 g/ha): 5 (Herbicidal rate of 90% or more (almost completely withered)) | R: persian speedwell, herbicidal effect ([14]; AAH 320 g/ha): 2 (Herbicidal rate of 20% or more and less than 40%) | F: southern crabgrass, herbicidal effect ([15]; AAH 320 g/ha): 4 (Herbicidal rate of 70% or more and less than 90%) | M: velvetleaf, herbicidal effect rating ([16]; AAH 320 g/ha): 0 (Herbicidal rate of 5% or less (almost no effect)) | O: lambsquarters, herbicidal effect ([17]; AAH 320 g/ha): 2 (Herbicidal rate of 20% or more and less than 40%) | O: lambsquarters, herbicidal effect rating ([18]; AAH 320 g/ha): 0 (Herbicidal rate of 5% or less (almost no effect)) | J: blackgrass, herbicidal effect ([19]; AAH 320 g/ha): 4 (Herbicidal rate of 70% or more and less than 90%) | Herbicidal effect on A: late watergrass (grade 0-5) [20]: 2 (Herbicidal rate of 20% or more and less than 40%) | Herbicidal effect on B: Japanese bulrush (grade 0-5) [21]: 0 (Herbicidal rate of 5% or less (almost no effect)) | L: windgrass, herbicidal effect ([22]; AAH 320 g/ha): 4 (Herbicidal rate of 70% or more and less than 90%) | K: Italian ryegrass, herbicidal effect ([23]; AAH 320 g/ha): 0 (Herbicidal rate of 5% or less (almost no effect)) | herbicidal effect on D (Chinese sprangletop), rating 0-5 [24]: 2 (Herbicidal rate of 20% or more and less than 40%) | P: chickweed, herbicidal effect ([25]; AAH 320 g/ha): 5 (Herbicidal rate of 90% or more (almost completely withered)) | herbicidal effect on H (barnyard grass), rating 0-5 [26]: 4 (Herbicidal rate of 70% or more and less than 90%) | R: persian speedwell, herbicidal effect rating ([27]; AAH 320 g/ha): 0 (Herbicidal rate of 5% or less (almost no effect)) | H: barnyard grass, herbicidal effect rating ([28]; AAH 320 g/ha): 2 (Herbicidal rate of 20% or more and less than 40%) | I: wild oat, herbicidal effect ([29]; AAH 320 g/ha): 2 (Herbicidal rate of 20% or more and less than 40%)
